Laboratory results: patent publication US20250387403A1, “SELECTIVE SIGMA-2 RECEPTOR LIGANDS AS MODULATORS OF TMEM97” (BOARD OF REGENTS, THE UNIVERSITY OF TEXAS SYSTEM, priority 2022, published 2025)

Biological target: T1, σ2R/TMEM97 (Homo sapiens, UniProt Q5BJF2)
Assay: Receptor binding assay (PDSP), human σ2R/TMEM97, [3H]-ditolylguanidine competition
Conditions: human σ2R/TMEM97
Protocol: (§1) Ki values are calculated from best-fit IC50 determinations performed in triplicate.
(§2) The binding affinities (Ki) of all synthetic compounds for σ2R/TMEM97 and σ1R were determined at the Psychoactive Drug Screening Program. Prior to the identification of σ2R as TMEM97, Ki values were measured using σ2R sourced from rat PC12 cells and σ1R sourced from guinea pig brain, but subsequently σ2R/TMEM97 and σ1R binding isotherms were determined using human protein obtained by transfection in HEK293T cells.

T1 sequence (Q5BJF2 whole entry, looked up): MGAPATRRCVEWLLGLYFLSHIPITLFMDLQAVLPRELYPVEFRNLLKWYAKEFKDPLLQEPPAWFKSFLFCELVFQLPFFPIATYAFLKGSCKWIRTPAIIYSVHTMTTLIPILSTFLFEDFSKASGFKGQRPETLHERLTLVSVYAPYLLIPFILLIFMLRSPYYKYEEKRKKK

| Structure (SMILES) | affinity (Ki) for σ2R/TMEM97, in words |
| --- | --- |
| O=C(C1CCN(CCO)CC1)N1CCC2CC1c1cc(-c3ccc(C(F)(F)F)cc3)ccc12 (racemic) [EES-1686, (±)-(1-(2-Hydroxyethyl)piperidin-4-yl)(8-(4-(trifluoromethyl)phenyl)-1,3,4,5-tetrahydro-2H-1,5-methanobenzo[c]azepin-2-yl)methanone] | high affinity |
| FC(F)(F)c1ccc(-c2ccc3c(c2)C2CC3CCCN2C2CCCCC2)cc1 (racemic) [BEA-1687, (±)-2-Cyclohexyl-9-(4-(trifluoromethyl)phenyl)-1,2,3,4,5,6-hexahydro-1,6-methanobenzo[c]azocine] | high affinity |
| CCCN1CCC(C(=O)N2CCC3CC2c2cc(-c4ccc(C(F)(F)F)cc4)ccc23)CC1 (racemic) [JJS-1678, (±)-(1-Propylpiperidin-4-yl)(8-(4-(trifluoromethyl)phenyl)-1,3,4,5-tetrahydro-2H-1,5-methanobenzo[c]azepin-2-yl)methanone] | high affinity |

Same assay, conditions: human σ2R/TMEM97 vs human σ1R

| Structure (SMILES) | selectivity for σ2R/TMEM97 vs σ1R, in words |
| --- | --- |
| O=C(C1CCN(CCO)CC1)N1CCC2CC1c1cc(-c3ccc(C(F)(F)F)cc3)ccc12 (racemic) [EES-1686, (±)-(1-(2-Hydroxyethyl)piperidin-4-yl)(8-(4-(trifluoromethyl)phenyl)-1,3,4,5-tetrahydro-2H-1,5-methanobenzo[c]azepin-2-yl)methanone] | good |
| FC(F)(F)c1ccc(-c2ccc3c(c2)C2CC3CCCN2C2CCCCC2)cc1 (racemic) [BEA-1687, (±)-2-Cyclohexyl-9-(4-(trifluoromethyl)phenyl)-1,2,3,4,5,6-hexahydro-1,6-methanobenzo[c]azocine] | good |
| CCCN1CCC(C(=O)N2CCC3CC2c2cc(-c4ccc(C(F)(F)F)cc4)ccc23)CC1 (racemic) [JJS-1678, (±)-(1-Propylpiperidin-4-yl)(8-(4-(trifluoromethyl)phenyl)-1,3,4,5-tetrahydro-2H-1,5-methanobenzo[c]azepin-2-yl)methanone] | good |

Tested on: primary cortical neurons transfected with plasmids expressing mHTT (Htt-N586-82Q)
Assay: mHTT-induced toxicity in transfected primary cortical neurons (HD cell model)
Assay type: cell-based
Conditions: concentrations 0.01-10 μM
Protocol: Toward testing the hypothesis that selective modulators of σ2R/TMEM97 have neuroprotective attributes in Huntington's disease, a small panel of compounds were evaluated with differing affinities and selectivities for σ2R/TMEM97 in a primary neuron model of HD. […] In the present disclosure, these compounds are tested in an HD cell model to assess the effects of these compounds upon mHTT-induced neuronal toxicity. Briefly, primary neurons were co-transfected with plasmid expression of a 586 N-terminal Htt polypeptide with either normal Q (Htt-N586-22Q) or expanded Q (Htt-N586-82Q) repeats and green fluorescent protein (GFP).
Stock solutions of σ2R/TMEM97 modulators were prepared by dissolving the compound in DMSO to a concentration of 10 mM. For the in vitro assays, the stock solution was diluted with culture medium (1:1000) to a working concentration of 10 μM of σ2R/TMEM97 modulator. Serial dilutions were then performed using culture medium to prepare other concentrations of the modulator. The final DMSO concentration is less than 0.1%. The vehicle group was performed using 0.1% DMSO in culture medium.
To assess the possible neuroprotective effects of selective σ2R/TMEM97 modulators in neurodegenerative processes associated with HD, a cell model was used that has been previously described (Arbez et al, 2017).

| Structure (SMILES) | neuroprotection against mHTT-induced neuronal toxicity |
| --- | --- |
| O=C(C1CCN(CCO)CC1)N1CCC2CC1c1cc(-c3ccc(C(F)(F)F)cc3)ccc12 (racemic) [EES-1686, (±)-(1-(2-Hydroxyethyl)piperidin-4-yl)(8-(4-(trifluoromethyl)phenyl)-1,3,4,5-tetrahydro-2H-1,5-methanobenzo[c]azepin-2-yl)methanone] | significant neuroprotection in a dose dependent fashion |
| FC(F)(F)c1ccc(-c2ccc3c(c2)C2CC3CCCN2C2CCCCC2)cc1 (racemic) [BEA-1687, (±)-2-Cyclohexyl-9-(4-(trifluoromethyl)phenyl)-1,2,3,4,5,6-hexahydro-1,6-methanobenzo[c]azocine] | significant neuroprotection in a dose dependent fashion |
| CN1CCN(c2ccc3c(c2)C2CC3CCN2C(=O)OCc2ccc(F)cc2)CC1 (racemic) [AMA-1127, (±)-4-Fluorobenzyl-8-(4-methylpiperazin-1-yl)-1,3,4,5-tetrahydro-2H-1,5-methanobenzo[c]azepine-2-carboxylate] | significant neuroprotection in a dose dependent fashion |

Same assay, conditions: lowest of the series

| Structure (SMILES) | concentration providing significant neuroprotection [nM] |
| --- | --- |
| O=C(C1CCN(CCO)CC1)N1CCC2CC1c1cc(-c3ccc(C(F)(F)F)cc3)ccc12 (racemic) [EES-1686, (±)-(1-(2-Hydroxyethyl)piperidin-4-yl)(8-(4-(trifluoromethyl)phenyl)-1,3,4,5-tetrahydro-2H-1,5-methanobenzo[c]azepin-2-yl)methanone] | 10 |

Same assay, conditions: primary cortical neurons

| Structure (SMILES) | intrinsic toxicity |
| --- | --- |
| O=C(C1CCN(CCO)CC1)N1CCC2CC1c1cc(-c3ccc(C(F)(F)F)cc3)ccc12 (racemic) [EES-1686, (±)-(1-(2-Hydroxyethyl)piperidin-4-yl)(8-(4-(trifluoromethyl)phenyl)-1,3,4,5-tetrahydro-2H-1,5-methanobenzo[c]azepin-2-yl)methanone] | None of these compounds appear to exhibit any intrinsic toxicity |
| FC(F)(F)c1ccc(-c2ccc3c(c2)C2CC3CCCN2C2CCCCC2)cc1 (racemic) [BEA-1687, (±)-2-Cyclohexyl-9-(4-(trifluoromethyl)phenyl)-1,2,3,4,5,6-hexahydro-1,6-methanobenzo[c]azocine] | None of these compounds appear to exhibit any intrinsic toxicity |
| CN1CCN(c2ccc3c(c2)C2CC3CCN2C(=O)OCc2ccc(F)cc2)CC1 (racemic) [AMA-1127, (±)-4-Fluorobenzyl-8-(4-methylpiperazin-1-yl)-1,3,4,5-tetrahydro-2H-1,5-methanobenzo[c]azepine-2-carboxylate] | None of these compounds appear to exhibit any intrinsic toxicity |

Biological target: σ2R/TMEM97 (Rattus norvegicus (Rat), UniProt Q5U3Y7)
Assay: Receptor binding assay (PDSP), rat σ2R/TMEM97 (PC12 cells), [3H]-ditolylguanidine competition
Conditions: rat σ2R/TMEM97
Protocol: as §1, §2

σ2R/TMEM97 (Rattus norvegicus (Rat), UniProt Q5U3Y7), sequence (Q5U3Y7 whole entry): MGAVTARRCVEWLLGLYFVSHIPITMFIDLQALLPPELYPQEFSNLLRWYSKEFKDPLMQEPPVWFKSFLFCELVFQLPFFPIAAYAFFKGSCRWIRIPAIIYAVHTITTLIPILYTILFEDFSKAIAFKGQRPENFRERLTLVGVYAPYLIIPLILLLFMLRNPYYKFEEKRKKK

| Structure (SMILES) | affinity (Ki) for σ2R/TMEM97, in words |
| --- | --- |
| CN1CCN(c2ccc3c(c2)C2CC3CCN2C(=O)OCc2ccc(F)cc2)CC1 (racemic) [AMA-1127, (±)-4-Fluorobenzyl-8-(4-methylpiperazin-1-yl)-1,3,4,5-tetrahydro-2H-1,5-methanobenzo[c]azepine-2-carboxylate] | high affinity |

Same assay, conditions: rat σ2R/TMEM97 vs guinea pig σ1R

| Structure (SMILES) | selectivity for σ2R/TMEM97 vs σ1R, in words |
| --- | --- |
| CN1CCN(c2ccc3c(c2)C2CC3CCN2C(=O)OCc2ccc(F)cc2)CC1 (racemic) [AMA-1127, (±)-4-Fluorobenzyl-8-(4-methylpiperazin-1-yl)-1,3,4,5-tetrahydro-2H-1,5-methanobenzo[c]azepine-2-carboxylate] | good selectivity |

Biological target: T1, σ2R/TMEM97
Assay: not given
Conditions: not given

| Structure (SMILES) | Ki [nM] |
| --- | --- |
| Cc1ccc(-c2ccc3c(c2)C2CC3CCCN2C2CCCC2)cc1 (stereo not shown) | 187 |
| OCCCN1CC[C@@H]2CC1c1cc(-c3ccnc(F)c3)ccc12 | 802 |
| O=C(C1CCNCC1)N1CCCC2CC1c1cc(-c3ccc(C(F)(F)F)cc3)ccc12 (stereo not shown) | 52.5 |
| CN1CCC(C(=O)N2CCC3CC2c2cc(-c4cccc(OC(F)(F)F)c4)ccc23)CC1 (stereo not shown) | 30.4 |
| O=C(C1CNC1)N1CCC2CC1c1cc(-c3cccc(C(F)(F)F)c3)ccc12 (stereo not shown) | 16 |
| COCCN1CC(C(=O)N2CCC3C[C@H]2c2cc(-c4ccc(C(F)(F)F)cc4)ccc23)C1 | 17.6 |
| O=C(C1CCNCC1)N1CCC2CC1c1cc(-c3cccc(C(F)(F)F)c3)ccc12 (stereo not shown) | 5.5 |
| OC1CCC(N2CCCC3CC2c2cc(-c4ccc(C(F)(F)F)cc4)ccc23)CC1 (stereo not shown) | 39 |
| CN(C)[C@H]1CC[C@@H](N2CCC3C[C@H]2c2cc(-c4cccc(C(F)(F)F)c4)ccc23)CC1 | 9.5 |
| FC(F)(F)c1cccc(-c2ccc3c(c2)C2CC3CCN2)c1 (stereo not shown) | 57 |
| COc1ccc(-c2ccc3c(c2)C2CC3CCCN2C2CCCC2)cc1 (stereo not shown) | 194 |
| CS(=O)(=O)c1ccc(-c2ccc3c(c2)[C@@H]2CC3CCN2C(=O)C2CCN(CCO)CC2)cc1 | 834 |
| N[C@H]1CC[C@@H](N2CCC3CC2c2cc(-c4cccc(C(F)(F)F)c4)ccc23)CC1 (stereo partly shown) | 7.9 |
| FC(F)(F)c1ccc(-c2ccc3c(c2)C2CC3CCCN2CC2CCCC2)cc1 (stereo not shown) | 99 |
| FC(F)(F)c1ccccc1-c1ccc2c(c1)C1CC2CCCN1C1CCCC1 (stereo not shown) | 549 |
| FC(F)(F)c1ccc(-c2ccc3c(c2)C2CC3CCCN2C2CCCCC2)cc1 (stereo not shown) | 25 |
| CN(C)CCC(=O)N1CCC2CC1c1cc(-c3cccc(C(F)(F)F)c3)ccc12 (stereo not shown) | 8.7 |
| O=C(C1CCN(CCO)CC1)N1CCC2C[C@H]1c1cc(-c3ccc(C(F)(F)F)cc3)ccc12 | 13.6 |
| CNCCC(=O)N1CCC2CC1c1cc(-c3cccc(C(F)(F)F)c3)ccc12 (stereo not shown) | 4.9 |
| O=C(C1CCN(CCO)CC1)N1CCC2CC1c1cc(-c3cccc(C(F)(F)F)c3)ccc12 (stereo not shown) | 32.3 |
| N[C@H]1CC[C@H](N2CCC3CC2c2cc(-c4cccc(C(F)(F)F)c4)ccc23)CC1 (stereo partly shown) | 70.5 |
| OCCCN1CC[C@@H]2CC1c1cc(-c3cccc(OC(F)(F)F)c3)ccc12 | 48.3 |
| OCCN1CCC2CC1c1cc(-c3ccc(C(F)(F)F)cc3)ccc12 (stereo not shown) | 32 |
| CN1CCC(C(=O)N2CCC3C[C@@H]2c2cc(-c4ccc(C(F)(F)F)cc4)ccc23)CC1 | 35.1 |
| CCCN1CCC2CC1c1cc(-c3cccc(C(F)(F)F)c3)ccc12 (stereo not shown) | 112 |
| O=C(N1CCN(CCO)CC1)N1CCC2C[C@H]1c1cc(-c3ccc(C(F)(F)F)cc3)ccc12 | 955 |
| O=C(N1CC2(CN(CCO)C2)C1)N1CCC2C[C@H]1c1cc(-c3ccc(C(F)(F)F)cc3)ccc12 | 441 |
| CS(=O)(=O)c1cccc(-c2ccc3c(c2)C2C[C@H]3CCN2CCCO)c1 | 1850 |

| Structure (SMILES) | Ki [nM] |
| --- | --- |
| N#Cc1ccc(-c2ccc3c(c2)C2CC3CCCN2C2CCCC2)cc1 (stereo not shown) | 119 |
| OCCCN1CCC2CC1c1cc(-c3ccc(C(F)(F)F)cc3)ccc12 (stereo not shown) | 11 |
| COCCN1CCC(C(=O)N2CCC3C[C@H]2c2cc(-c4ccc(C(F)(F)F)cc4)ccc23)CC1 | 10.3 |
| O=C(C1CCNCC1)N1CCC2CC1c1cc(-c3ccc(C(F)(F)F)cc3)ccc12 (stereo not shown) | 6.8 |
| CC(C)N1CCCC2CC1c1cc(-c3ccc(C(F)(F)F)cc3)ccc12 (stereo not shown) | 87 |
| CCCN1CCC(C(=O)N2CCC3CC2c2cc(-c4ccc(C(F)(F)F)cc4)ccc23)CC1 (stereo not shown) | 1.3 |
| OC(CF)CN1CCC2CC1c1cc(-c3ccc(C(F)(F)F)cc3)ccc12 (stereo not shown) | 34 |
| CC(=O)N[C@H]1CC[C@H](N2CCC3CC2c2cc(-c4cccc(C(F)(F)F)c4)ccc23)CC1 (stereo partly shown) | 4.1 |
| O=C(C1CCN(CCCO)CC1)N1CCC2C[C@H]1c1cc(-c3ccc(C(F)(F)F)cc3)ccc12 | 7.7 |
| CN1CCC(C(=O)N2CCC3CC2c2cc(-c4cccc(C(F)(F)F)c4)ccc23)CC1 (stereo not shown) | 2.3 |
| FC(F)(F)c1ccc(-c2ccc3c(c2)C2CC3CCN2C2CCC2)cc1 (stereo not shown) | 213 |
| FC(F)(F)c1ccc(-c2ccc3c(c2)C2CC3CCCN2C2CCCC2)cn1 (stereo not shown) | 336 |
| O=C(C1CCN(CCCO)CC1)N1CC[C@@H]2CC1c1cc(-c3cccc(OC(F)(F)F)c3)ccc12 | 264 |
| O=C(N1CC2CC(C1)N2CCO)N1CCC2C[C@H]1c1cc(-c3ccc(C(F)(F)F)cc3)ccc12 | 62.9 |
| Fc1ccc(-c2ccc3c(c2)C2CC3CCCN2C2CCCC2)cc1 (stereo not shown) | 153 |
| O=C(C1CCNCC1)N1CC[C@@H]2CC1c1cc(-c3cccc(OC(F)(F)F)c3)ccc12 | 35.4 |
| N[C@H]1CC[C@@H](N2CCC3C[C@H]2c2cc(-c4cccc(C(F)(F)F)c4)ccc23)CC1 | 30.8 |
| FC(F)(F)Oc1cccc(-c2ccc3c(c2)C2CC3CCN2C2CCCCC2)c1 (stereo not shown) | 79 |
| O=C(C1CN(CCO)C1)N1CCC2C[C@H]1c1cc(-c3ccc(C(F)(F)F)cc3)ccc12 | 15.3 |
| O=C(N1CCC2(CC1)CN(CCO)C2)N1CCC2C[C@H]1c1cc(-c3ccc(C(F)(F)F)cc3)ccc12 | 91.6 |
| FC(F)(F)c1ccc(-c2ccc3c(c2)C2CC3CCN2C2CCCC2)cc1 (stereo not shown) | 82.3 |
| CS(=O)(=O)c1ccc(-c2ccc3c(c2)C2C[C@H]3CCN2CCCO)cc1 | 1180 |
| FC(F)(F)c1cccc(-c2ccc3c(c2)C2CC3CCCN2C2CCCC2)c1 (stereo not shown) | 62 |
| O=C(C1CCNCC1)N1CC[C@H]2CC1c1cc(-c3cccc(OC(F)(F)F)c3)ccc12 | 37.1 |
| CS(=O)(=O)c1cccc(-c2ccc3c(c2)C2C[C@H]3CCN2C(=O)C2CCN(CCO)CC2)c1 | 277 |
| FC(F)(F)c1ccc(-c2ccc3c(c2)C2CC3CCCN2)cc1 (stereo not shown) | 21 |
| CN(CCO)CCC(=O)N1CCC2CC1c1cc(-c3cccc(C(F)(F)F)c3)ccc12 (stereo not shown) | 4.3 |
